# From US6828450B2, “Triptycene analogs” (Kansas State University Research Foundation, priority 2000, dated 2004)
# Values joined by “and” are separate entries in the source; they are usually repeats but may differ in a detail not shown here. Equal entries are not always repeated. Where two headings read alike, the source gives them in different places.
# Key:
# [1] = test system: Plasmodium falciparum 3D7; assay: Antimalarial activity, inhibition of Plasmodium falciparum 3D7; format: cell-based; conditions: malaria strain 3D7
# HL-60-RV cells = assay: Nucleoside transport in HL-60-RV cells; format: cell-based, human; conditions: for IC50: 15-min preincubation, 30 s
# Source text: FIG. 15. Comparison of the concentration-dependent inhibitions of the cellular transport of purine (A) and pyrimidine (B) nucleosides by DAU (open symbols) and TT2 (closed symbols) in HL-60-S (circles), HL-60-RV (squares) and HL-60-R8 (triangles) cells in vitro. Results are expressed as % of ^3H-adenosine (26,032±2,239 cpm, 100±9%, striped area in A) and ^3H-thymidine (17,934±1,398 cpm, 100±8%, striped area in B) transported into vehicle-treated control cells over 30 s.
# (§1) The MDR HL-60-RV and HL-60-R8 cells were developed in Melvin S. Center's laboratory (Kansas State University) and similarly maintained in RPMI 1640 medium in the absence of drugs (Marsh W, et al, Cancer Res 46: 4053-4057, 1986; McGrath T et al, and Center M S: Biochem Biophys Res Commun 145: 1171-1176, 1987; Marsh W and Center M S: Cancer Res 47: 5080-5086, 1987; McGrath T, et al, Biochem Pharmacol 38: 3611-3619, 1989; Marquardt D, et al, Cancer Res 50: 1426-1430, 1990; Marquardt D and Center M S: J Natl Cancer Inst 83: 1089-1109, 1991; Krishnamachary N and Center M S; Cancer Res 53: 3658-3661, 1993). Every 4 weeks, these HL-60-RV and HL-60-R8 sublines were exposed to 41 nM DAU for 48 h to stabilize their MDR phenotype. This concentration of DAU, which is not cytotoxic to MDR HL-60 sublines, was removed from the culture medium at least 48 h before experimentation. […] RFs were determined by dividing the IC50 of the MDR cells by that of the sensitive WT parent cell line.
# L1210 cells (about 1.5×10^6 cells/0.5 ml) were preincubated for 15 min at 37° C. in the presence or absence of TTs and then exposed to 1 μCi of ^3H-thymidine for only 30 sec to assess the cellular uptake of nucleoside over such very short period of time. HL-60-S, HL-60-RV and HL-60-R8 cells (1.2×10^6 cells/0.5 ml) were preincubated for 15 min at 37° C. in the presence or absence (control) of drugs and then exposed to 1 μCi of [2,8-^3H]adenosine (30 Ci/mmol; American Radiolabeled Chemicals, St. Louis, Mo.) or [methyl-^3H]thymidine (50 Ci/mmol; Amersham, Arlington Heights, Ill.) for only 30 s to, respectively, assess the cellular uptake of purine and pyrimidine nucleosides over such very short period of time Reactions were diluted with 2 ml of ice-cold Ca^2+/Mg^2+-free Dulbecco's phosphate buffered saline (PBS) and the unincorporated radiolabel was removed by centrifugation at 200×g for 10 min. […] Cell lysates were mixed with 9 ml of Bio-Safe II (Researeh Products International) and counted to estimate the cellular uptake of ^3H-thymidine. Drug inhibition was expressed as % of ^3H-thymidine or ^3H-adenosine transported into vehicle-treated control cells over similar 30-sec period.
# HL-60-S cells = assay: HL-60-S cell viability assay (MTS:PMS); format: cell-based, human
# Source text: as §1
# HL-60-R8 cells = assay: HL-60-R8 (MDR) cell viability assay (MTS:PMS); format: cell-based, human; conditions: read-out: IC50, decrease of HL-60-R8 cell viability
# Source text: as §1
# L1210 cells = assay: Protein synthesis (3H-leucine incorporation) in L1210 cells; format: cell-based, murine
# Experimental: FIG. 17. Comparison of the concentration-dependent inhibitions of protein synthesis by the TT analog TT2 (●) and DAU (∘) in L1210 cells in vitro. […] Protein synthesis in vehicle-treated control cells was 13,812±1,070 cpm (100±8%; striped area). The blank value (2,436±298 cpm) for cells incubated and pulse-labeled at 2° C. with 2.5 μCi of ^3H-leucine has been substracted from the results.
# Except when otherwise specified, the cells were incubated at 37° C. for 90 min in the presence or absence of drugs and then pulse-labeled for an additional 30 min with 1 μCi of [methyl-^3H]thymidine (50 Ci/mmol; Amersham Corp., Arlington Heights, Ill.) to estimate the rate of DNA synthesis. […] After drying the filters, the radioactivity bound to the acid-precipitable material was determined by liquid scintillation counting (LSC) in 10 ml of Bio-Safe NA (Researeh Products International Corp., Mount Prospect, Ill.).
SMILES,IC50 [1] [µM],"RFs, nucleoside transport (HL-60-RV cells; HL-60-RV and HL-60-R8 vs HL-60-S, adenosine and thymidine)","IC50 (HL-60-RV cells; purine nucleoside, read-out: IC50, cellular transport of 3H-adenosine in HL-60-RV cells) [nM]","IC50 (HL-60-RV cells; pyrimidine nucleoside, read-out: IC50, cellular transport of 3H-thymidine in HL-60-RV cells) [nM]",times TT2 inhibits viability less effectively than DAU (HL-60-S cells; HL-60-S) [times],"IC50 (HL-60-S cells; HL-60-S, HL-60-RV and HL-60-R8, day 4, read-out: IC50 values, decrease of cell viability, range over the three lines) [nM]","IC50 (HL-60-S cells; day 2, read-out: IC50, decrease of HL-60-S cell viability) [nM]","IC50 (HL-60-S cells; day 4, read-out: IC50, decrease of HL-60-S cell viability) [nM]",IC50 (HL-60-R8 cells; day 2) [nM],IC50 (HL-60-R8 cells; day 4) [nM],"IC50 (L1210 cells; 3 h drug + 1 h pulse-labeling, read-out: IC50, inhibition of protein synthesis in L1210 cells)",effect on nucleoside transport in the two MDR sublines (HL-60-RV cells; HL-60-RV and HL-60-R8),"IC50 (HL-60-S cells; Homo sapiens, 48 h, read-out: IC50, decrease of HL-60-S cell viability) [nM]","IC50 (HL-60-S cells; Homo sapiens, 96 h, read-out: IC50, decrease of HL-60-S cell viability) [nM]","IC50 (HL-60-R8 cells; Homo sapiens, 48 h) [nM]","IC50 (HL-60-R8 cells; Homo sapiens, 96 h) [nM]",times DAU inhibits protein synthesis more effectively than TT2 (L1210 cells; L1210) [times]
"COC1=CC(=O)C2=C(C1=O)C1C3=C(C(=O)C=CC3=O)C2c2ccccc21 (stereo not drawn) [TT2, 2-Methoxy-9,10-dihydro-9,10-[1′,2′]benzenoanthracene-1,4,5,8-tetraone]",8,1.0-1.2,3200,2000,15,230 to 350,1300,230,1600,350,6 µM and ~6 µM,,,,,,
"COc1cccc2c1C(=O)c1c(O)c3c(c(O)c1C2=O)C[C@@](O)(C(C)=O)C[C@@H]3O[C@H]1C[C@H](N)[C@H](O)[C@H](C)O1 [DAU, daunomycin, reference compound]",,,,,,,,,,,,unable,80,15,2500,380,~3
"COC1=C(Br)C(=O)C2=C(C1=O)C1C3=C(C(=O)C=C(N(C)C)C3=O)C2c2ccccc21 (stereo not drawn) [TT16, 2-Bromo-3-methoxy-6-(dimethylamino)-9,10-dihydro-9,10-[1′,2′]benzenoanthracene-1,4,5,8-tetraone]",5.6,,,,,,,,,,,,,,,,
